Data: ChEMBL document CHEMBL3758105 (J Med Chem, 2016)
pIC50, pKi: −log10 of the molar value. Converted amounts (≈) assume the structure as drawn.

Key:
[1] = molecular target: Stromelysin-1 (Homo sapiens, UniProt P08254); experiment: Inhibition of MMP3 (unknown origin) catalytic domain using MCA-Arg-Pro-Leu-Gly-Leu-Dpa-Ala-Arg-Glu-Arg-NH2 as substrate preincubated for 60 mins followed by substrate addition by fluorescence assay
[2] = molecular target: Matrix metalloproteinase-14 (Homo sapiens, UniProt P50281); experiment: Inhibition of MMP14 (unknown origin) catalytic domain using MCA-Arg-Pro-Leu-Gly-Leu-Dpa-Ala-Arg-Glu-Arg-NH2 as substrate preincubated for 60 mins followed by substrate addition by fluorescence assay
[3] = molecular target: Collagenase 3 (Homo sapiens, UniProt P45452); experiment: Inhibition of full length human recombinant MMP13 using MCA-Arg-Pro-Leu-Gly-Leu-Dpa-Ala-Arg-Glu-Arg-NH2 as substrate preincubated for 60 mins followed by substrate addition by fluorescence assay
[4] = Intrinsic clearance in human liver microsomes measured over 40 mins by HPLC/MS analysis; format: ADME; settings: read-out: CLH
[5] = Clearance in Sprague-Dawley rat at 1 mg/kg, iv administered as bolus dose by LC-MS/MS analysis; format: ADME, organism-based; settings: in vivo
[6] = Oral bioavailability in Sprague-Dawley rat at 1 mg/kg; format: ADME, organism-based; settings: in vivo
[7] = Thermodynamic solubility of the compound in crystalline solid form in phosphate buffer at pH 7.4; format: physicochemical; settings: read-out: Therm_solubility
[8] = Plasma protein binding in human; format: ADME, cell-free; settings: read-out: PPB (converted)
[9] = Plasma protein binding in beagle dog at 1 mg/kg, po administered as cassette dosing; format: ADME, organism-based, Canis lupus familiaris; settings: read-out: PPB (converted)
[10] = tested on: Canis familiaris; experiment: Free Cmax in beagle dog at 1 mg/kg, po administered as cassette dosing; format: ADME, organism-based, Canis lupus familiaris; settings: in vivo
[11] = tested on: Canis familiaris; experiment: Free AUC in beagle dog at 1 mg/kg, po administered as cassette dosing; format: ADME, organism-based, Canis lupus familiaris; settings: in vivo
[12] = Intrinsic clearance in rat liver microsomes measured over 40 mins by HPLC/MS analysis; format: ADME; settings: read-out: CLH
[13] = physchem; settings: buffer, pH 7.4
[14] = Clearance in Sprague-Dawley rat at 0.2 mg/kg, iv administered as cassette bolus dose by LC-MS/MS analysis; format: ADME, organism-based; settings: in vivo
[15] = molecular target: CYP2C9 (Homo sapiens, UniProt P11712); experiment: Inhibition of CYP2C9 in human liver microsomes assessed as reduction of diclofenac metabolism at 3 uM after 8 mins; format: ADME; settings: probe diclofenac
Sequence of CYP2C9 (P11712 whole entry): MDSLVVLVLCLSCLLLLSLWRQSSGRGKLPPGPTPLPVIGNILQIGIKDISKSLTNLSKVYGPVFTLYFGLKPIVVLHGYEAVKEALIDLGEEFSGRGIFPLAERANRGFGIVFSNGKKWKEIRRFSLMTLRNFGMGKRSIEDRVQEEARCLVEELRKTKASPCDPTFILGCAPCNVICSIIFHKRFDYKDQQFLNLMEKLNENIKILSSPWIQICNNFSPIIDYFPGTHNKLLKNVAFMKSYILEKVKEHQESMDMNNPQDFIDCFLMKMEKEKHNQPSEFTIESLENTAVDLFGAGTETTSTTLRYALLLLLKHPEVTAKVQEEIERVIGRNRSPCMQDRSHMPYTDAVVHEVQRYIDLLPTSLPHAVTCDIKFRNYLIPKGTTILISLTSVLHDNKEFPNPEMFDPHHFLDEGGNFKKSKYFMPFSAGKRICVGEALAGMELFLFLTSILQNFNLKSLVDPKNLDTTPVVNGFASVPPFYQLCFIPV

[16] = Half life of the compound assessed as compound rearrangement; format: physicochemical
[17] = molecular target: T1, Organic anion transporter 3 (Homo sapiens, UniProt Q8TCC7); experiment: Inhibition of human OAT3 expressed in HEK cells assessed as reduction of [3H]-estrone sulfate uptake by radioactivity counting analysis; format: cell-based, HEK293
T1 sequence (Q8TCC7 whole entry): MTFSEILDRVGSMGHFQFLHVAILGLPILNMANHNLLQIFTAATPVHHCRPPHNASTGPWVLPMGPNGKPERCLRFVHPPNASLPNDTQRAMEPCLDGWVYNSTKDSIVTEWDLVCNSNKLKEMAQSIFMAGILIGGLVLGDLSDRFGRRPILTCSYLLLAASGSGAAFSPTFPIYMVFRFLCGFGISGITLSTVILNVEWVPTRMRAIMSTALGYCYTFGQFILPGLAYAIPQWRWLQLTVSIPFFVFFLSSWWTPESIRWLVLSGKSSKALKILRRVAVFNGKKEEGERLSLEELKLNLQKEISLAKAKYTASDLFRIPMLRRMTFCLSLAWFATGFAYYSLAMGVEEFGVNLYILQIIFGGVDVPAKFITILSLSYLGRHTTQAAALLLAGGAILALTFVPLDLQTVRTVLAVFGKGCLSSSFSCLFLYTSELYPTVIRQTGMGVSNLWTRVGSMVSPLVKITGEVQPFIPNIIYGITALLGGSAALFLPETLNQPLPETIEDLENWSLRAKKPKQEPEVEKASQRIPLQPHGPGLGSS

Sequence of Stromelysin-1 (P08254 whole entry, the tested form may be a part): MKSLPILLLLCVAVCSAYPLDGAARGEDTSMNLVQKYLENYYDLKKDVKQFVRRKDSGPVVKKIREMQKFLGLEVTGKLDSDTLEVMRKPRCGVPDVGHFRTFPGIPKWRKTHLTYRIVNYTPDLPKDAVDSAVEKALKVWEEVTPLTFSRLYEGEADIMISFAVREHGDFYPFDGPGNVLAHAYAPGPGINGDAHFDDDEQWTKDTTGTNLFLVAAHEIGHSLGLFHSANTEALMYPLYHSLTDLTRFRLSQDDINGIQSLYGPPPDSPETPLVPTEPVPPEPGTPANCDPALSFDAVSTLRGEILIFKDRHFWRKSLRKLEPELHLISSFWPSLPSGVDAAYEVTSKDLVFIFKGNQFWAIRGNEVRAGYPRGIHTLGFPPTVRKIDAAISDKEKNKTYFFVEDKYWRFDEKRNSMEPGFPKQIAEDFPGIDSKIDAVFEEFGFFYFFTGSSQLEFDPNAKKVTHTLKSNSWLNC

In the case of `COc1cccc(CNC(=O)c2cc(-c3nnn(C[C@H]4CC[C@H](C(=O)O)CC4)n3)cc(C)n2)c1`, the pKi [1] was under 5.00.

In the case of `CNC(=O)[C@@H](NC(=O)[C@H](CC(C)C)[C@H](O)C(=O)NO)C(C)(C)C`, the pIC50 [2] was 5.00.

Compound `COc1cc(CNC(=O)c2cc(-c3nnn(C[C@@H]4CO[C@@H](CO)CO4)n3)nc(C)n2)ccc1F` has a pKi [3] of 8.38, a microsomal CLint [4] of under 8 µL/min/mg and a clearance [5] of 9.8 mL/min/kg. For the same compound, the bioavailability [6] was 113% and the pKi [1] was under 5.00.

With `Cc1cc(-c2nnn(C[C@H]3CC[C@H](CO)CC3)n2)cc(C(=O)NCc2cccc(F)c2)n1` the pKi [3] was 6.96.

`COc1cccc(CNC(=O)c2cc(-c3nnn(C[C@H]4CO[C@H](CO)CO4)n3)nc(C)n2)c1` (racemic) showed a solubility thermodynamic [7] of 237 µM (≈ 108 µg/mL), a pKi [3] of 8.24 and a microsomal CLint [4] of under 8 µL/min/mg. It also gave a clearance [5] of 10.6 mL/min/kg, a fraction unbound [8] of 0.31 and a bioavailability [6] of 65%. The fraction unbound [9] was 0.37, the fCmax [10] was 580 nM and the fAUC [11] was 3.24 µM·h. The pKi [1] was under 5.00.

For `COc1cccc(CNC(=O)c2cc(-c3nnn(CC4CCN(C(C)=O)CC4)n3)cc(C)n2)c1`, the pKi [3] was 7.78 and the pKi [1] was under 5.00.

`COc1cccc(CNC(=O)c2cc(-c3nnn(C[C@H]4CC[C@H](O)CC4)n3)cc(C)n2)c1` showed a pKi [3] of 8.35 and a pKi [1] of under 5.00.

For `COc1cccc(CNC(=O)c2cc(-c3nnn(CC4COCCO4)n3)cc(C)n2)c1` (racemic), the pKi [3] was 7.85, the microsomal CLint [4] was under 8 µL/min/mg and the microsomal CLint [12] was 74 µL/min/mg. It also gave a clearance [5] of 25.8 mL/min/kg, a logD [13] of 2.49 and a pKi [1] of under 5.00.

For `COc1cccc(CNC(=O)c2cc(-c3nnn(C[C@H]4CO[C@H](CO)CO4)n3)cc(C)n2)c1` (racemic), the solubility thermodynamic [7] was 28 µM (≈ 12.7 µg/mL), the pKi [3] was 7.93 and the microsomal CLint [4] was under 8 µL/min/mg. For the same compound, the microsomal CLint [12] was 15.7 µL/min/mg, the clearance [5] was 7.7 mL/min/kg and the fraction unbound [8] was 0.14. It also gave a bioavailability [6] of 48%, a fraction unbound [9] of 0.24 and a fCmax [10] of 66 nM. It also gave a fAUC [11] of 1.23 µM·h, a logD [13] of 2.04 and a pKi [1] of under 5.00.

With `COc1cccc(CNC(=O)c2cc(-c3nnn(C[C@H]4CC[C@H](NS(C)(=O)=O)CC4)n3)cc(C)n2)c1` the pKi [3] was 9.60, the microsomal CLint [4] was under 8 µL/min/mg and the clearance [14] was 42.6 mL/min/kg. The pKi [1] was under 5.00.

`Cc1cc(-c2nnn(C[C@H]3CC[C@H](CO)CC3)n2)cc(C(=O)NCc2cccc(C(F)(F)F)c2)n1` gave a pKi [3] of 7.62 and an inhibition at 8 min, 3 µM [15] of 94%.

For `COc1cccc(CNC(=O)c2cc(-c3nnn(CC4CCN(S(C)(=O)=O)CC4)n3)cc(C)n2)c1`, the pKi [3] was 8.24 and the pKi [1] was under 5.00.

`O=C(O)Cc1ccccc1Nc1c(Cl)cccc1Cl` [DICLOFENAC] showed a half-life [16] of 0.5 h.

`COc1cccc(CNC(=O)c2cc(-c3nnn(CC4CCCCO4)n3)cc(C)n2)c1` (single isomer, unassigned; (+)) gave a pKi [3] of 7.77 and a pKi [1] of under 5.00.

Compound `Cn1c(=O)n(Cc2ccc(C(=O)O)cc2)c(=O)c2cc(C#CCc3ccccc3)ccc21` has a pIC50 [17] of 4.74.

For `Cc1cc(-c2nnn(C[C@H]3CC[C@H](CO)CC3)n2)cc(C(=O)NCc2ccc(F)c(Cl)c2)n1`, the pKi [3] was 8.40 and the inhibition at 8 min, 3 µM [15] was 90%.

In the case of `Cc1cc(-c2nnn(C[C@H]3CC[C@H](CO)CC3)n2)cc(C(=O)NCc2ccc(F)cc2)n1`, the pKi [3] was 7.48 and the inhibition at 8 min, 3 µM [15] was 56%.

Compound `Cc1cc(-c2nnn(C[C@H]3CC[C@H](CO)CC3)n2)cc(C(=O)NCc2ccccc2)n1` has a pKi [3] of 6.92 and an inhibition at 8 min, 3 µM [15] of 78%.

Compound `COc1cc(CNC(=O)c2cc(-c3nnn(C[C@H]4CC[C@H](CO)CC4)n3)cc(C)n2)ccc1F` has a pKi [3] of 8.92 and an inhibition at 8 min, 3 µM [15] of 39%.

Compound `COc1cccc(CNC(=O)c2cc(-c3nnn(CC4CCCOC4)n3)cc(C)n2)c1` (racemic) has a pKi [3] of 7.78 and a pKi [1] of under 5.00.

In the case of `COc1cccc(CNC(=O)c2cc(-c3nnn(C[C@H]4CC[C@H](NC(C)=O)CC4)n3)cc(C)n2)c1`, the pKi [3] was 8.70, the microsomal CLint [4] was 24.7 µL/min/mg and the clearance [14] was 77.6 mL/min/kg. It also gave a pKi [1] of under 5.00.

For `Cc1cccc(CNC(=O)c2cc(-c3nnn(C[C@H]4CC[C@H](CO)CC4)n3)cc(C)n2)c1`, the pKi [3] was 7.33 and the inhibition at 8 min, 3 µM [15] was 93%.

With `COc1cccc(CNC(=O)c2cc(-c3nnn(C[C@H]4CC[C@@H](CO)CC4)n3)cc(C)n2)c1` the pKi [3] was 8.39 and the pKi [1] was 5.06.

With `COc1cccc(CNC(=O)c2cc(-c3nnn(C[C@H]4CC[C@H](C#N)CC4)n3)cc(C)n2)c1` the pKi [3] was 8.57 and the pKi [1] was 5.14.

`Cc1cc(-c2nnn(C[C@H]3CC[C@H](C(=O)O)CC3)n2)cc(C(=O)NCc2ccc(F)cc2)n1` showed a pIC50 [17] of 5.22 and a half-life [16] of 67 h.

`COc1cccc(CNC(=O)c2cc(-c3nnn(C[C@H]4CC[C@@H](NS(C)(=O)=O)CC4)n3)cc(C)n2)c1` gave a pKi [3] of 8.09 and a pKi [1] of under 5.00.

`COc1cccc(CNC(=O)c2cc(-c3nnn(CC4CCCCC4)n3)cc(C)n2)c1` showed a pKi [3] of 7.47, a microsomal CLint [4] of 41.7 µL/min/mg and a microsomal CLint [12] of 98.5 µL/min/mg. For the same compound, the clearance [5] was 63.5 mL/min/kg, the logD [13] was 4.37 and the pKi [1] was under 5.00.

`COc1cccc(CNC(=O)c2cc(-c3nnn(C[C@H]4CC[C@@H](NC(C)=O)CC4)n3)cc(C)n2)c1` showed a pKi [3] of 8.85 and a pKi [1] of under 5.00.

With `COc1cccc(CNC(=O)c2cc(-c3nnn(CC4CCCCO4)n3)cc(C)n2)c1` (single isomer, unassigned; (-)) the pKi [3] was 8.11, the microsomal CLint [4] was 53.1 µL/min/mg and the microsomal CLint [12] was 192 µL/min/mg. It also gave a clearance [5] of 54.5 mL/min/kg and a logD [13] of 3.22.

With `COc1cccc(CNC(=O)c2cc(-c3nnn(C[C@H]4CC[C@H](CO)CC4)n3)cc(C)n2)c1` the pKi [3] was 8.68, the inhibition at 8 min, 3 µM [15] was 66% and the microsomal CLint [4] was 32.7 µL/min/mg. It also gave a microsomal CLint [12] of 94.9 µL/min/mg, a clearance [5] of 76.6 mL/min/kg and a logD [13] of 3.57. The pKi [1] was under 5.00.

In the case of `Cc1cc(-c2nnn(C[C@H]3CC[C@H](CO)CC3)n2)cc(C(=O)NCc2cccc(Cl)c2)n1`, the pKi [3] was 7.41.

Work on `COc1cccc(CNC(=O)c2cc(-c3nnn(C[C@H]4CC[C@H](C(N)=O)CC4)n3)cc(C)n2)c1` yielded a pKi [3] of 7.67.

In the case of `COc1cccc(CNC(=O)c2cc(-c3nnn(C[C@H]4CC[C@@H](O)CC4)n3)cc(C)n2)c1`, the pKi [3] was 7.96 and the pKi [1] was under 5.00.

With `COc1ccc(CNC(=O)c2cc3c(=O)n(Cc4ccc(C(=O)O)cc4)cnc3cn2)cc1` the pIC50 [17] was 4.23.

`Cc1cc(-c2nnn(C[C@H]3CC[C@H](CO)CC3)n2)cc(C(=O)NCc2ccc(F)c(F)c2)n1` showed a pKi [3] of 7.53 and an inhibition at 8 min, 3 µM [15] of 83%.

Work on `Cc1cc(-c2nnn(C[C@H]3CC[C@H](CO)CC3)n2)cc(C(=O)NCc2ccc(F)c(C(F)(F)F)c2)n1` yielded a pKi [3] of 8.20 and an inhibition at 8 min, 3 µM [15] of 90%.

In the case of `Cc1cc(-c2nnn(C[C@H]3CC[C@H](CO)CC3)n2)cc(C(=O)NCc2ccc(F)c(C)c2)n1`, the pKi [3] was 8.42 and the inhibition at 8 min, 3 µM [15] was 96%.
